# From patent US6794372B2, “Nitrate salts of antimicrobial agents” (Nicox S.A., priority 2000, dated 2004)
# What was measured:
# [1] = system: Escherichia Coli (ATCC25922); test: Dilution test in vitro on medium for antibacterial agents, strain E. Coli; type: cell-based; conditions: CAMH broth, 5×10^5 CFU/ml, 35° C. for 20 hr, read with the naked eye
# Source text: (§1) Dilution Test in vitro on Medium for Antibacterial Agents
# The capability to antagonize the arising of the microbial resistance of the nitrate salts of the antimicrobial compounds in comparison with that of the respective precursors has been evaluated.
# (§2) Such activity has been determined by using the dilution method in vitro on culture medium as described by Sahm et al. (S. D. Sahm, J. A. Washington “Antibacterial susceptibility tests: dilution methods” in: Manual of Clinical Microbiology, ed. A. Balows, W. J. Hausler, Jr, K. L. Hermann, H. D. Isenberg, H. J. Shadomy, 1991, American Society for Microbiology). According to this method a concentration in aqueous solution of substance having antimicrobial activity able to inhibit the growth of some bacterial strains is determined. For the precursor the maximum concentration of the substance at which the microbial growth is still observed under the adopted experimental conditions is selected and the same concentration is used for the corresponding nitrate salt. The solvents and the necessary dilutions for preparing the strain substances of the antibiotics to be tested are prepared according to procedures standard and well known to the person skilled in the field (National Committee for Clinical Laboratory Standards, 1990 “Methods for dilution antimicrobial susceptibility tests for bacteria that grow aerobically. Approved standard M7-A2. National Committee for Clinical Laboratory Standards, Villanova, Pa.). Also the preparation of the culture medium is carried out according to standard procedures and the CAMH broth is used (Cation-adjusted Mueller-Hinton broth) (National Committee for Clinical Laboratory Standards, 1990, Methods for dilution antimicrobial susceptibility tests for bacteria that grow aerobically. Approved standard M7-A2. National Committee for Clinical Laboratory Standards, Villanova, Pa.).
# (§3) The inoculation procedure is carried out according to standard procedures and the final concentration of the inocolum is of 5×10^5 CFU (colony forming unit)/ml. The used microorganisms have been Escherichia Coli (ATCC25922) and Staphylococcus Aureus (ATCC29213).
# (§4) The test tubes are incubated at 35° C. for 20 hr before reading. The microbial growth, or the absence of the same, is determined in a qualitative way, with the naked eye and it indicates the microbial resistance or, respectively, the sensitivity to the antimicrobial agent.
# [2] = system: Staphylococcus Aureus (ATCC29213); test: Dilution test in vitro on medium for antibacterial agents, strain S. Aureus; type: cell-based; conditions: CAMH broth, 5×10^5 CFU/ml, 35° C. for 20 hr, read with the naked eye
# Source text: as §1, §2, §3, §4
smiles,measurement,setting,value
"CC1(C)S[C@@H]2[C@H](NC(=O)[C@H](N)c3ccccc3)C(=O)N2[C@H]1C(=O)O.O=[N+]([O-])O [Ampicillin.HNO3, Ampicillin nitrate salt]",RESPONSE (microbial growth),[1]; concentration 1.0 μg/ml,No growth
CC1(C)S[C@@H]2[C@H](NC(=O)[C@H](N)c3ccccc3)C(=O)N2[C@H]1C(=O)O [Ampicillin],RESPONSE (microbial growth),[1]; concentration 1.0 μg/ml,Growth
"Cc1nnc(SCC2=C(C(=O)O)N3C(=O)[C@@H](NC(=O)Cn4cnnn4)[C@H]3SC2)s1.O=[N+]([O-])O [Cefazolin.HNO3, Cefazolin nitrate salt]",RESPONSE (microbial growth),[1]; concentration 0.5 μg/ml,No growth
Cc1nnc(SCC2=C(C(=O)O)N3C(=O)[C@@H](NC(=O)Cn4cnnn4)[C@H]3SC2)s1 [Cefazolin],RESPONSE (microbial growth),[1]; concentration 0.5 μg/ml,Growth
"O=C(O)c1cn(C2CC2)c2cc(N3CCNCC3)c(F)cc2c1=O.O=[N+]([O-])O [Ciprofloxacin.HNO3, Ciprofloxacin nitrate salt]",RESPONSE (microbial growth),[2]; concentration 1.0 μg/ml,No growth
O=C(O)c1cn(C2CC2)c2cc(N3CCNCC3)c(F)cc2c1=O [Ciprofloxacin],RESPONSE (microbial growth),[2]; concentration 0.05 μg/ml,Growth
"CCCC1CC(C(=O)NC(C(C)Cl)C2OC(SC)C(O)C(O)C2O)N(C)C1.O=[N+]([O-])O (centres unmarked) [Clindamycin.HNO3, Clindamycin nitrate salt]",RESPONSE (microbial growth),[2]; concentration 0.03 μg/ml,No growth
CCC[C@@H]1C[C@@H](C(=O)N[C@@H]([C@H]2O[C@H](SC)[C@H](O)[C@@H](O)[C@H]2O)[C@H](C)Cl)N(C)C1 [Clindamycin],RESPONSE (microbial growth),[2]; concentration 0.03 μg/ml,Growth
"CC[C@H]1OC(=O)[C@H](C)[C@@H](O[C@H]2C[C@@](C)(OC)[C@@H](O)[C@H](C)O2)[C@H](C)[C@@H](O[C@@H]2O[C@H](C)C[C@H](N(C)C)[C@H]2O)[C@](C)(O)C[C@@H](C)C(=O)[C@H](C)[C@@H](O)[C@]1(C)O.O=[N+]([O-])O [Erythromycin.HNO3, Erythromycin nitrate salt]",RESPONSE (microbial growth),[2]; concentration 0.06 μg/ml,No growth
CC[C@H]1OC(=O)[C@H](C)[C@@H](O[C@H]2C[C@@](C)(OC)[C@@H](O)[C@H](C)O2)[C@H](C)[C@@H](O[C@@H]2O[C@H](C)C[C@H](N(C)C)[C@H]2O)[C@](C)(O)C[C@@H](C)C(=O)[C@H](C)[C@@H](O)[C@]1(C)O [Erythromycin],RESPONSE (microbial growth),[2]; concentration 0.06 μg/ml,Growth
"Cc1cc(NS(=O)(=O)c2ccc(N)cc2)no1.O=[N+]([O-])O [Sulfamethoxazole.HNO3, Sulfamethoxazole nitrate salt]",RESPONSE (microbial growth),[2]; concentration 20 μg/ml,No growth
Cc1cc(NS(=O)(=O)c2ccc(N)cc2)no1 [Sulfamethoxazole],RESPONSE (microbial growth),[2]; concentration 20 μg/ml,Growth
"COc1cc(Cc2cnc(N)nc2N)cc(OC)c1OC.O=[N+]([O-])O [Trimethoprim.HNO3, Trimethoprim nitrate salt]",RESPONSE (microbial growth),[2]; concentration 0.5 μg/ml,No growth
COc1cc(Cc2cnc(N)nc2N)cc(OC)c1OC [Trimethoprim],RESPONSE (microbial growth),[2]; concentration 0.5 μg/ml,Growth
